Read-outs that look alike come from different tables or passages of the source.
How the values were obtained:
C57BL/6J-APCMin/+ mice = assay: Kidney damage caused by intestinal adenoma in C57BL/6J-APCMin/+ mice; format: in vivo, mouse; details: 10 mg/kg/day intraperitoneal, 9 days
Description: C57BL/6J-APCMin/+ mice are a mature mammalian intestinal adenoma model and are commonly used to study host consumption caused by tumors.
Methods: Male mice of C57BL/6J in the control group and C57BL/6J-APCMin/+ in the experimental group (7 mice in each group) were fed to 16 weeks of age under normal feeding conditions. When the mice in the experimental group began to lose weight, they were injected intraperitoneally with Fezolinetant (0, 10 mg/kg/day) for 9 consecutive days, and the body weight and urine output were measured, and the kidneys were stained to observe the tubular morphology.

[1] = test system: hot flashes in postmenopausal women; details: Phase 2 clinical trials; cited from earlier work
[2] = test system: Yki activated Drosophila (intestinal tumors); assay: Drosophila ascites caused by yki intestinal tumors; format: in vivo; details: 100 μM in food, yki intestinal tumor Drosophila, 6 days / 8 days
Text: Overexpression of the activated proto-oncogene yki in Drosophila intestinal stem cells can lead to malignant proliferation of intestinal stem cells, and then the formation of tumors. The formation of tumors seriously damages the secretory function of Drosophila Malpighian tubules, leading to the inability of circulating water in the Drosophila hemolymph to be drained out of the body, and the emergence of a severe ascites phenotype. Methods: Activated yki tumors (genotypes esg-Gal4, UAS-GFP, tub-Gal80TS/+; UAS-yki3SA/+) were induced in the Drosophila intestine by initiating gene expression at 29° C. Drosophilas were fed with food supplemented with DMSO, Fezolinetant (10 μM, 100 μM), and Pavinetant (10 μM, 100 μM), […], and compared with the control group (esg-Gal4, UAS-GFP, tub-Gal80TS/+), to observe phenotypes, detect intestinal tumor growth and systemic glycolipid changes, and count ascites ratios.

[3] = test system: MFC tumor mice (C57BL/6J); assay: Ascites and kidney damage caused by MFC forestomach cancer cells in mice; format: in vivo, mouse; details: 50 mg/kg/day intraperitoneal, 5 days
Description: MFC tumor (Mouse forestomach carcinoma), a common tumor that may cause ascites, colonizes the peritoneal cavity of mice. With their growth, the tumors may cause severe ascites accumulation and renal tubular damage in mice. Methods: C57BL/6J male mice, 4-6 weeks old. C57BL/6J mice in experimental group (6 mice in each group) were intraperitoneally injected with 1.5×10^7 MFC tumor cells, and 24 hours later, intraperitoneally injected with the inhibitor Pavinetant (0, 10, 50 mg/kg/day), and after 5 days of continuous administration, they were compared with the control group C57BL/6 (6 mice in each group). The body weight, ascites, and urine output were detected, and the kidneys were stained to observe the tubular morphology.

cytochrome P450-3A4 = cytochrome P450-3A4 (Homo sapiens, UniProt P08684); details: cited from earlier work
[4] = test system: polycystic ovary syndrome; details: Phase 2 clinical trials; cited from earlier work

cytochrome P450-3A4, sequence (P08684 whole entry): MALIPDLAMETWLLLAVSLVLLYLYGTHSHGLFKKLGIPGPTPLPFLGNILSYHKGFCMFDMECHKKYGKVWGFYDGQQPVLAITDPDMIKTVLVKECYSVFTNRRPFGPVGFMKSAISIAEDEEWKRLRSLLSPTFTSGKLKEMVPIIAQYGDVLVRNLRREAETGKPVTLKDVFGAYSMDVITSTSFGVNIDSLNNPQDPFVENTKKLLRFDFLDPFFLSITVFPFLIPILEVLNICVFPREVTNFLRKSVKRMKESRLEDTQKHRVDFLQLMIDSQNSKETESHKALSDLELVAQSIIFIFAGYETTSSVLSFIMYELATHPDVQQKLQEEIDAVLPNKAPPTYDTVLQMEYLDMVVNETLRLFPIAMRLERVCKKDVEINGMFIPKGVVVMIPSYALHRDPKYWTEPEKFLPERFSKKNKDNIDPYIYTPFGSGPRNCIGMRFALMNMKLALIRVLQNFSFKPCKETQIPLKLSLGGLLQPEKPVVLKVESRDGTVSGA

Row | SMILES | renal tubular damage (HE staining, tubular dilatation) (C57BL/6J-APCMin/+ mice) | urine output (C57BL/6J-APCMin/+ mice) | effect on hot flashes [1] | ascites in Drosophila [2] | blood glucose in Drosophila [2] | generation of ascites [3] | renal tubular lesions (renal tubular dilation) [3] | IC50 (cytochrome P450-3A4; midazolam, read-out: in vitro inhibitory IC50, cytochrome P450-3A4 enzyme activity, midazolam testing) [µM] | IC50 (cytochrome P450-3A4; testosterone, read-out: in vitro inhibitory IC50, cytochrome P450-3A4 enzyme activity, testosterone testing) [µM] | effect on polycystic ovary syndrome [4]
1 | Cc1nsc(-c2nnc3n2CCN(C(=O)c2ccc(F)cc2)[C@@H]3C)n1 [Fezolinetant] | significantly restored | significantly restored | significant improvement effect | significantly reduce | normalize |  |  |  |  | 
2 | CC[C@H](NC(=O)c1c(NS(C)(=O)=O)c(-c2ccccc2)nc2ccccc12)c1ccccc1 [Pavinetant] |  |  | significantly improves | significantly reduce | normalize | significantly inhibit | alleviate | 7.1 | 19.8 | significantly improves

Reference: patent US20250262206A1, “USE OF TACHYKININ RECEPTOR 3 INHIBITÓR” (WUHAN UNIVERSITY, priority 2021, published 2025)
